The record followed here is PMC10535268, “Design, Synthesis, and Evaluation of Novel Indole Hybrid Chalcones and Their Antiproliferative and Antioxidant Activity” (Molecules, 2023).

One series has as its system MCF-7. Description: MTT antiproliferative assay, MCF-7. Conditions: mean ± SD of three independent experiments. The format is cell-based, human.
In a further series the test system is MDA-MB-231. Description: MTT antiproliferative assay, MDA-MB-231. The following applies: MDA-MB-231, 72 h incubation, mean ± SD of three independent experiments. The class given is cell-based, human.
Series [1] can be described thus: ABTS radical scavenging activity. The following applies: sample 1 mM, 30 min, gallic acid equivalents, mean (±SD), triplicate. An excerpt:
(§1) Table 3 Antioxidant activity.

Series [2] can be described thus: Ferric reducing antioxidant power (FRAP). The following applies: sample 1 mM, 30 min, gallic acid equivalents, mean (±SD), triplicate.
Text: as §1

For the next series, the system named is MCF-10A. Description: MTT cytotoxicity assay, non-cancer MCF-10A. Conditions: 72 h incubation, mean ± SD of three independent experiments. The format is cell-based, human.
The next series deals with Hela. Description: MTT antiproliferative assay, HeLa. The format is cell-based, human. Conditions: 72 h incubation, mean ± SD of three independent experiments. Here is the method: Table 2 IC50 (μM) ± SD of tested compounds in different cell lines after 72 h incubation. | column: Cell Line, IC50 (µM) ± SD / Hela
The test system of the next series is Jurkat. Description: MTT antiproliferative assay, Jurkat. The format is cell-based, human. The following applies: 72 h incubation, mean ± SD of three independent experiments.
Series [3] can be described thus: DPPH radical scavenging activity. Conditions: sample 1 mM; for DPPH: 30 min, gallic acid equivalents, mean (±SD), triplicate.
For a further series, the system named is HCT116. Description: MTT antiproliferative assay, HCT116. The class given is cell-based, human. The following applies: mean ± SD of three independent experiments.
Where [4] appears, read: Homo sapiens, MCF7, 72 h, MCF-7, 72 h incubation.
[5] abbreviates: Homo sapiens, HCT-116, 72 h, HCT116, 72 h incubation.
Where [6] appears, read: Homo sapiens, MCF7, MCF-7, 72 h incubation.
The mark [7] stands for this setting: Homo sapiens, HCT-116, HCT116, 72 h incubation.

The structures appear in SMILES notation. Several values for one entry are separate records, joined by “and”; a condition that tells them apart may be missing. Equal entries are not always repeated.

Regarding `O=C(/C=C/c1c[nH]c2ccccc12)c1ccccc1F` [11a, (2E)-1-(2″-Fluorophenyl)-3-(1′H-indol-3′-yl)prop-2-en-1-one], the concentration for half-maximal inhibition (IC50) is 37.1 ± 0.4 µM in the series with MCF-7 (MCF-7, 72 h incubation); 51.4 ± 3.2 µM in the series on MDA-MB-231; 89.1 ± 2.4 µM in the series on MCF-10A; 41.7 ± 0.2 µM in the series with Hela; < 8.3 µM and 7.6 µM in the series on Jurkat; 31.8 ± 2.1 µM with HCT116 (HCT116, 72 h incubation). The ABTS in series [1] is given as 150.6 (±4.7) µmol GAE/mmol. In addition, the FRAP in series [2] was 62.2 (±9.9) µmol GAE/mmol. Besides, the DPPH in [3] is listed as 20.5 (±4.0) µmol GAE/mmol.

In the case of `Cn1cc(/C=C/C(=O)c2ccccc2F)c2ccccc21` [11b, (2E)-1-(2″-Fluorophenyl)-3-(1′-metyl-1′H-indol-3′-yl)prop-2-en-1-one], the IC50 with MCF-7 (MCF-7, 72 h incubation) is 47.5 ± 4.3 µM; in the series on MDA-MB-231, above 100 µM; in the series on MCF-10A, above 100 µM; with Hela, 57.9 ± 0.4 µM; in the series on Jurkat it was 32.4 ± 1.2 µM; in the series on HCT116 (HCT116, 72 h incubation), 41.5 ± 1.7 µM. Further, the ABTS in series [1] is listed as 5.7 (±2.7) µmol GAE/mmol. Further, the FRAP in series [2] is 47.2 (±1.0) µmol GAE/mmol. In series [3], the DPPH is recorded as 18.9 (±2.3) µmol GAE/mmol.

On to `COn1cc(/C=C/C(=O)c2ccccc2F)c2ccccc21` [11c, (2E)-1-(2″-Fluorophenyl)-3-(1′-methoxy-1′H-indol-3′-yl)prop-2-en-1-one], for which the IC50 is 20 ± 7.9 µM in the series with MCF-7 (MCF-7, 72 h incubation); 21.1 ± 3.9 µM with MDA-MB-231; 67 ± 2.9 µM with MCF-10A; 19.2 ± 5.7 µM with Hela; < 8.3 µM and 5.9 µM in the series on Jurkat; 37.9 ± 2.7 µM with HCT116 (HCT116, 72 h incubation). The ABTS in series [1] is 41.4 (±6.7) µmol GAE/mmol. In addition, the FRAP in series [2] is 27.4 (±0.9) µmol GAE/mmol. In [3], the DPPH is listed as 23.2 (±11.9) µmol GAE/mmol.

For `COc1[nH]c2ccccc2c1/C=C/C(=O)c1ccccc1F` [11d, (2E)-1-(2″-Fluorophenyl)-3-(2′-methoxy-1′H-indol-3′-yl)prop-2-en-1-one], the 50% inhibitory concentration (IC50) was 32 ± 1.2 µM in the series on MCF-7 (MCF-7, 72 h incubation); 95.5 ± 2.7 µM in the series on MDA-MB-231; 98 ± 1.3 µM with MCF-10A; above 100 µM with Hela; 11.4 ± 1.9 µM in the series with Jurkat; 45.5 ± 2.4 µM in the series with HCT116 (HCT116, 72 h incubation).

Regarding `CCOc1[nH]c2ccccc2c1/C=C/C(=O)c1ccccc1F` [11e, (2E)-3-(2′-ethoxy-1′H-indol-3′-yl)-1-(2″-fluorophenyl)prop-2-en-1-one], the IC50 was 30.3 ± 2.2 µM with MCF-7 (MCF-7, 72 h incubation); 72.2 ± 5.4 µM in the series with MDA-MB-231; 94 ± 4.6 µM with MCF-10A; 75.2 ± 4.1 µM in the series with Hela; < 8.3 µM and 8.3 µM in the series on Jurkat; 40.1 ± 0.6 µM in the series with HCT116 (HCT116, 72 h incubation).

Regarding `CC(C)Oc1[nH]c2ccccc2c1/C=C/C(=O)c1ccc(F)cc1` [11g, (2E)-1-(4″-Fluorophenyl)-3-(2′-isopropoxy-1′H-indol-3′-yl)prop-2-en-1-one], the IC50 amounted to 17.1 ± 2.3 µM with MCF-7 (MCF-7, 72 h incubation); 33.3 ± 0.3 µM in the series on MDA-MB-231; 41.8 ± 1.5 µM in the series with MCF-10A; 34.2 ± 0.1 µM in the series on Hela; 36.7 ± 4.9 µM in the series on Jurkat; 31.7 ± 1.7 µM with HCT116 (HCT116, 72 h incubation).

With `CCCCOc1[nH]c2ccccc2c1/C=C/C(=O)c1ccccc1F` [11h, (2E)-3-(2′-butoxy-1′H-indol-3′-yl)-1-(2″-fluorophenyl)prop-2-en-1-one], the IC50 with MCF-7 (MCF-7, 72 h incubation) came out at 13.8 ± 3.5 µM; in the series on MDA-MB-231, 36.3 ± 2.1 µM; in the series with MCF-10A it was 65.5 ± 3.7 µM; with Hela it was 48.2 ± 1 µM; with Jurkat, 35.9 ± 1.8 µM; in the series with HCT116 (HCT116, 72 h incubation), 31 ± 2.9 µM.

Consider `CC(C)COc1[nH]c2ccccc2c1/C=C/C(=O)c1ccc(F)cc1` [11i, (2E)-3-(2′-isobutoxy-1′H-indol-3′-yl)-1-(4″-fluorophenyl)prop-2-en-1-one], for which the concentration for half-maximal inhibition (IC50) in the series with MCF-7 (MCF-7, 72 h incubation) was found to be 30.7 ± 0.6 µM; in the series with MDA-MB-231 it was 42.9 ± 0.4 µM; in the series on MCF-10A it was 93.3 ± 3.4 µM; in the series on Hela it was 54.6 ± 3.6 µM; in the series with Jurkat, 40.1 ± 3.2 µM; with HCT116 (HCT116, 72 h incubation), 33.8 ± 0.1 µM.

In the case of `COCC(C)Oc1[nH]c2ccccc2c1/C=C/C(=O)c1ccccc1F` (stereo not shown) [11j, (2E)-1-(2-fluorophenyl)-3-{2-[(1-methoxypropan-2-yl)oxy]-1H-indol-3-yl}prop-2-en-1-one], the IC50 was 26.2 ± 0.5 µM in the series with MCF-7 (setting [4]); 51.2 ± 4.1 µM with MDA-MB-231 (Homo sapiens); 76.5 ± 1.1 µM in the series with MCF-10A (Homo sapiens, MCF-10A, 72 h); 50 ± 1.8 µM in the series on Hela (Homo sapiens, HeLa, 72 h); 40.4 ± 2.1 µM with Jurkat (Homo sapiens); 32.4 ± 1.3 µM in the series on HCT116 (setting [5]).

`O=C(/C=C/c1c(OCCO)[nH]c2ccccc12)c1ccccc1F` [11k, (2E)-1-(2-fluorophenyl)-3-[2-(2-hydroxyethoxy)-1H-indol-3-yl]prop-2-en-1-one] returned a melting point of 140 to 143 °C. In addition, half-maximal inhibition in the series with MCF-7 (setting [4]) (IC50) required 38.1 ± 3.3 µM. Moreover, 64.5 ± 4.7 µM corresponded to half-maximal inhibition in the series on MDA-MB-231 (Homo sapiens) (IC50). In addition, the concentration for half-maximal inhibition (IC50) in the series on MCF-10A (Homo sapiens, MCF-10A, 72 h) worked out at 94.7 ± 2.6 µM. Further, it took 52.9 ± 1.6 µM to reach half-maximal inhibition in the series with Hela (Homo sapiens, HeLa, 72 h) (IC50). Besides, the IC50 in the series on Jurkat (Homo sapiens) came to 37.8 ± 0.9 µM. Besides, the IC50 with HCT116 (setting [5]) is 39.4 ± 1.5 µM.

Regarding `Cn1cc(C(=O)/C=C/c2ccc(O)cc2)c2ccccc21` [17b, (2E)-3-(4-hydroxyphenyl)-1-(1-methyl-1H-indol-3-yl)prop-2-en-1-one], the melting point fell in the range of 236 to 239 °C. The compound further registered an IC50 with MCF-7 (setting [6]) of 50.3 ± 0.6 µM. Also, the ABTS in [1] is 218.9 (±5.6) µmol GAE/mmol. The FRAP in series [2] is on record as 156.2 (±1.1) µmol GAE/mmol. This compound had an IC50 with MCF-10A (Homo sapiens) of 22.8 ± 0.4 µM. Moreover, the DPPH in [3] is given as 20.7 (±6.6) µmol GAE/mmol. This compound returned an IC50 with HCT116 (setting [7]) above 100 µM.

Take `Cn1cc(C(=O)/C=C/c2ccc(O)c(O)c2)c2ccccc21` [18b, (2E)-3-(3,4-dihydroxyphenyl)-1-(1-methyl-1H-indol-3-yl)prop-2-en-1-one]: the melting point lay within 210 to 214 °C. Besides, the IC50 with MCF-7 (setting [6]) is 37.4 ± 2.2 µM. For the same compound, the ABTS in [1] is 487.3 (±43.9) µmol GAE/mmol. In series [2], the FRAP is recorded as 564.8 (±2.2) µmol GAE/mmol. This compound registered a 50% inhibitory concentration (IC50) in the series with MCF-10A (Homo sapiens) of 7.8 ± 0.3 µM. In the series on Hela (Homo sapiens), this compound registered an IC50 of 6.7 ± 0.8 µM. Besides, the DPPH in series [3] was 589.1 (±8.9) µmol GAE/mmol. The compound also came in with an IC50 in the series with HCT116 (setting [7]) of 7.1 ± 0.7 µM.

Consider `COc1cc(/C=C/C(=O)c2cn(C)c3ccccc23)ccc1O` [19b, (2E)-3-(4-hydroxy-3-methoxyphenyl)-1-(1-methyl-1H-indol-3-yl)prop-2-en-1-one], for which the melting point is 170 to 172 °C. This compound also returned an IC50 in the series on MCF-7 (setting [6]) of 69.8 ± 1.1 µM. Besides, the ABTS in [1] is recorded as 410.7 (±28.9) µmol GAE/mmol. Also, the FRAP in [2] is reported as 262.2 (±14.2) µmol GAE/mmol. The same compound had an IC50 in the series with MCF-10A (Homo sapiens) of 28.9 ± 0.8 µM. Besides, in the series on Hela (Homo sapiens), the IC50 amounted to 34.9 ± 1.3 µM. Besides, the DPPH in [3] is recorded as 225.6 (±14.7) µmol GAE/mmol.

For `COc1cc(/C=C/C(=O)c2cn(OC)c3ccccc23)ccc1O` [19c, (2E)-3-(4-hydroxy-3-methoxyphenyl)-1-(1-methoxy-1H-indol-3-yl)prop-2-en-1-one], the melting point fell in the range of 155 to 156 °C. In series [1], the ABTS is given as 456.0 (±24.6) µmol GAE/mmol. In addition, the FRAP in series [2] is on record as 296.2 (±10.4) µmol GAE/mmol. Also, the DPPH in series [3] is 207.7 (±8.6) µmol GAE/mmol.

As for `O=C(O)/C=C/c1ccc(O)c(O)c1` [caffeic acid, reference compound], in series [1], the ABTS is given as 586.0 (±32.8) µmol GAE/mmol. Moreover, the FRAP in series [2] is listed as 500.0 (±33.5) µmol GAE/mmol. For the same compound, in series [3], the “DPPH activity” value came out at 690.7 ± 36.6 GAE/mmol and the DPPH is 690.7 (±36.6) µmol GAE/mmol.

`O=C(O)/C=C/c1ccc(O)cc1` [p -coumaric acid, p-coumaric acid, reference compound]: the ABTS in series [1] was 278.8 (±11.1) µmol GAE/mmol. Besides, in [2], the FRAP was 105.2 (±4.2) µmol GAE/mmol. Besides, in series [3], the DPPH is reported as 23.0 (±3.1) µmol GAE/mmol.
